Legend:
NCI-H2122 [1] = test: fitted bottom plateau of viability curve, % of DMSO control; higher = less maximal inhibition; extreme values may be limits of the assay
Procedure, shortened: (§1)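 In 384-well plates, NCI-H2122 cells were seeded at 800 cells/well and SW837 and NCI-H358 cells at 500 cells/well, all in 60 µl. Single compounds were added by acoustic dispensing in dose series 24 h later, with incubation for 72 h for NCI-H2122 and NCI-H358 and 144 h for SW837. CellTiter-Glo luminescence was read on an EnVision reader after 15 min shaking and expressed as percent of DMSO controls. A four-parameter nonlinear fit gave the relative IC50, averaged over replicates, and the lower plateau.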

SW837 [2] = test: as above
Procedure, shortened: as §1

NCI-H2122 [3] = test: relative IC50 of cell viability (CellTiter-Glo); higher = less potent
Protocol: (§2)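 CellTiter-Glo proliferation assay in KRAS G12C mutant NCI-H2122 (72 h), SW837 (144 h) and NCI-H358 cells in 384-well plates. Monotherapy dose response was fitted with a four-parameter curve after normalisation to DMSO controls (% of control, PoC). IC50 is the relative IC50, averaged over replicates. Bottom is the fitted lower plateau in %PoC; Max.Conc. is the top dose tested.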

SW837 [4] = test: as above
Protocol: as §2

CC(=O)O[C@@]12CO[C@@H]1C[C@H](O)[C@@]1(C)C(=O)[C@H](O)C3=C(C)[C@@H](OC(=O)[C@H](O)[C@@H](NC(=O)OC(C)(C)C)c4ccccc4)C[C@@](O)([C@@H](OC(=O)c4ccccc4)[C@H]21)C3(C)C [Docetaxel] (top concentration tested 100.01 nM)
fitted bottom plateau of viability curve (NCI-H2122 [1]): 4.04%
fitted bottom plateau of viability curve (SW837 [2]): 22.5%
relative IC50 of cell viability (NCI-H2122 [3]): 1.68 nM
relative IC50 of cell viability (SW837 [4]): 2.73 nM

Cc1[nH]c(/C=C2\C(=O)Nc3ccc(S(=O)(=O)Cc4c(Cl)cccc4Cl)cc32)c(C)c1C(=O)N1CCC[C@@H]1CN1CCCC1 (top concentration tested 10000 nM)
fitted bottom plateau of viability curve (NCI-H2122 [1]): 0.553%
fitted bottom plateau of viability curve (SW837 [2]): 1.78%
relative IC50 of cell viability (NCI-H2122 [3]): 3030 nM
relative IC50 of cell viability (SW837 [4]): 2390 nM

C/C=C1\NC(=O)[C@H]2CSSCC/C=C/[C@H](CC(=O)N[C@H](C(C)C)C(=O)N2)OC(=O)[C@H](C(C)C)NC1=O [Romidepsin] (top concentration tested 10000 nM)
fitted bottom plateau of viability curve (NCI-H2122 [1]): 0.385%
fitted bottom plateau of viability curve (SW837 [2]): 0.0763%
relative IC50 of cell viability (NCI-H2122 [3]): 5.65 nM
relative IC50 of cell viability (SW837 [4]): 76.4 nM

CCC1=C[C@@H]2CN(C1)Cc1c([nH]c3ccccc13)[C@@](C(=O)OC)(c1cc3c(cc1OC)N(C)[C@H]1[C@@](O)(C(=O)OC)[C@H](OC(C)=O)[C@]4(CC)C=CCN5CC[C@]31[C@@H]54)C2 [Vinorelbine] (top concentration tested 100.01 nM)
fitted bottom plateau of viability curve (NCI-H2122 [1]): 5.21%
fitted bottom plateau of viability curve (SW837 [2]): 42.9%
relative IC50 of cell viability (NCI-H2122 [3]): 9.06 nM
relative IC50 of cell viability (SW837 [4]): 17.1 nM

CCOC(=O)CCNc1cc(N2CCc3ccccc3CC2)nc(-c2ccccn2)n1 [GSK-J4] (top concentration tested 50000 nM)
fitted bottom plateau of viability curve (NCI-H2122 [1]): 61.7%
fitted bottom plateau of viability curve (SW837 [2]): 28.7%
relative IC50 of cell viability (NCI-H2122 [3]): 64800 nM
relative IC50 of cell viability (SW837 [4]): 12300 nM

COc1cc(Nc2ncc3c(n2)-c2ccc(Cl)cc2C(c2c(F)cccc2OC)=NC3)ccc1C(=O)O [MLN8237] (top concentration tested 999.95 nM)
fitted bottom plateau of viability curve (NCI-H2122 [1]): 21.5%
fitted bottom plateau of viability curve (SW837 [2]): 13.6%
relative IC50 of cell viability (NCI-H2122 [3]): 75.9 nM
relative IC50 of cell viability (SW837 [4]): 943 nM

NC(=O)c1cnc(N[C@@H]2CCCC[C@@H]2N)nc1Nc1cccc(-n2nccn2)c1 (top concentration tested 10000 nM)
fitted bottom plateau of viability curve (NCI-H2122 [1]): 39.3%
fitted bottom plateau of viability curve (SW837 [2]): 30.9%
relative IC50 of cell viability (NCI-H2122 [3]): 3860 nM
relative IC50 of cell viability (SW837 [4]): 2110 nM

CN(Cc1cnc2nc(N)nc(N)c2n1)c1ccc(C(=O)N[C@@H](CCC(=O)O)C(=O)O)cc1 [Methotrexate] (top concentration tested 10000 nM)
fitted bottom plateau of viability curve (NCI-H2122 [1]): 37.4%
fitted bottom plateau of viability curve (SW837 [2]): 31.9%
relative IC50 of cell viability (NCI-H2122 [3]): 7.98 nM
relative IC50 of cell viability (SW837 [4]): 57 nM

COC(=O)c1ccc2c(c1)NC(=O)/C2=C(\Nc1ccc(N(C)C(=O)CN2CCN(C)CC2)cc1)c1ccccc1 [Nintedanib] (top concentration tested 10000 nM)
fitted bottom plateau of viability curve (NCI-H2122 [1]): 50.6%
fitted bottom plateau of viability curve (SW837 [2]): 8.69%
relative IC50 of cell viability (NCI-H2122 [3]): 5990 nM
relative IC50 of cell viability (SW837 [4]): 2240 nM

CNCc1ccc(-c2cc(-c3nc(-c4ccc(S(=O)(=O)C(C)C)cc4)cnc3N)on2)cc1 [VE-822/VX-970] (top concentration tested 9999.9 nM)
fitted bottom plateau of viability curve (NCI-H2122 [1]): 0.375%
fitted bottom plateau of viability curve (SW837 [2]): 2.47%
relative IC50 of cell viability (NCI-H2122 [3]): 278 nM
relative IC50 of cell viability (SW837 [4]): 807 nM

Cc1cn(CCN2CCN(c3ccccc3-c3cc(C#N)cc(C(=O)NCCCN4CCCC4)c3)CC2)c2ccccc12 [LLY-507] (top concentration tested 9999.9 nM)
fitted bottom plateau of viability curve (NCI-H2122 [1]): 24%
fitted bottom plateau of viability curve (SW837 [2]): 0%
relative IC50 of cell viability (NCI-H2122 [3]): 2850 nM
relative IC50 of cell viability (SW837 [4]): 5600 nM

Cc1[nH]c2ccccc2c1CCNCc1ccc(/C=C/C(=O)NO)cc1 [Panobinostat] (top concentration tested 99.878 nM)
fitted bottom plateau of viability curve (NCI-H2122 [1]): 11.3%
fitted bottom plateau of viability curve (SW837 [2]): 0.651%
relative IC50 of cell viability (NCI-H2122 [3]): 16.4 nM
relative IC50 of cell viability (SW837 [4]): 20.9 nM

CCc1cnn2c(NCc3ccc[n+]([O-])c3)cc(N3CCCC[C@H]3CCO)nc12 (top concentration tested 1000 nM)
fitted bottom plateau of viability curve (NCI-H2122 [1]): 3.3%
fitted bottom plateau of viability curve (SW837 [2]): 5.65%
relative IC50 of cell viability (NCI-H2122 [3]): 8.91 nM
relative IC50 of cell viability (SW837 [4]): 25.9 nM

Cn1c(=O)n(-c2ccc(C(C)(C)C#N)cc2)c2c3cc(-c4cnc5ccccc5c4)ccc3ncc21 [NVP-BEZ235] (top concentration tested 999.9 nM)
fitted bottom plateau of viability curve (NCI-H2122 [1]): 9.96%
fitted bottom plateau of viability curve (SW837 [2]): 33.2%
relative IC50 of cell viability (NCI-H2122 [3]): 58.5 nM
relative IC50 of cell viability (SW837 [4]): 153 nM

Source: the supplement of paper PMC11424490
